Results reported in PubChem BioAssay (NCI).
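1) Cells in 96-well plates. 2) Compound, 48 h, 5 concentrations. 3) Linear interpolation between surrounding doses. 4) Unreached endpoint = highest concentration. Here, GI50 denotes the concentration required for 50% inhibition of growth. The concentration for full growth arrest is given as TGI.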

Tests used:
Test in all cases: NCI anticancer screen, dose series, 48 h
ACHN renal = tested on: ACHN renal
K-562 leukemia = tested on: K-562 leukemia
COLO 205 colon = tested on: COLO 205 colon
SW-620 colon = tested on: SW-620 colon
HOP-92 NSCLC = tested on: HOP-92 NSCLC
HT29 colon = tested on: HT29 colon
NCI-H460 lung = tested on: NCI-H460 lung
SF-295 CNS = tested on: SF-295 CNS
PC-3 prostate = tested on: PC-3 prostate
UO-31 renal = tested on: UO-31 renal
MALME-3M melanoma = tested on: MALME-3M melanoma
RPMI-8226 leukemia = tested on: RPMI-8226 leukemia
M14 melanoma = tested on: M14 melanoma
MOLT-4 leukemia = tested on: MOLT-4 leukemia
IGROV1 ovarian = tested on: IGROV1 ovarian
NCI-H226 lung = tested on: NCI-H226 lung
CCRF-CEM leukemia = tested on: CCRF-CEM leukemia
HOP-62 NSCLC = tested on: HOP-62 NSCLC
OVCAR-8 ovarian = tested on: OVCAR-8 ovarian
SN12C renal = tested on: SN12C renal
OVCAR-5 ovarian = tested on: OVCAR-5 ovarian
SF-539 CNS = tested on: SF-539 CNS
A498 renal = tested on: A498 renal
OVCAR-3 ovarian = tested on: OVCAR-3 ovarian
RXF 393 renal = tested on: RXF 393 renal
LOX IMVI melanoma = tested on: LOX IMVI melanoma
HL-60(TB) leukemia = tested on: HL-60(TB) leukemia
SR leukemia = tested on: SR leukemia
OVCAR-4 ovarian = tested on: OVCAR-4 ovarian
T-47D breast = tested on: T-47D breast
HS 578T breast = tested on: HS 578T breast
MDA-MB-435 = tested on: MDA-MB-435
SF-268 CNS = tested on: SF-268 CNS
NCI/ADR-RES ovarian = tested on: NCI/ADR-RES ovarian
SNB-75 CNS = tested on: SNB-75 CNS
NCI-H23 lung = tested on: NCI-H23 lung
U251 CNS = tested on: U251 CNS
MDA-MB-231 breast = tested on: MDA-MB-231 breast
KM12 colon = tested on: KM12 colon
HCT-15 colon = tested on: HCT-15 colon
SK-OV-3 ovarian = tested on: SK-OV-3 ovarian
SK-MEL-28 melanoma = tested on: SK-MEL-28 melanoma
MCF7 breast = tested on: MCF7 breast
CAKI-1 renal = tested on: CAKI-1 renal
HCC-2998 colon = tested on: HCC-2998 colon
EKVX NSCLC = tested on: EKVX NSCLC
BT-549 breast = tested on: BT-549 breast
A549 NSCLC = tested on: A549 NSCLC
SNB-19 CNS = tested on: SNB-19 CNS
SK-MEL-5 melanoma = tested on: SK-MEL-5 melanoma
786-0 renal = tested on: 786-0 renal
TK-10 renal = tested on: TK-10 renal
NCI-H522 lung = tested on: NCI-H522 lung
DU-145 prostate = tested on: DU-145 prostate
HCT-116 colon = tested on: HCT-116 colon
SK-MEL-2 melanoma = tested on: SK-MEL-2 melanoma
UACC-257 melanoma = tested on: UACC-257 melanoma

SMILES: CN1CCN(CCCOc2ccc3nc(Nc4ccc(F)c(F)c4)ccc3c2)CC1
- GI50 (ACHN renal): 2.24 µM
- TGI (ACHN renal): 5.6 µM
- GI50 (K-562 leukemia): 1.37 µM
- TGI (K-562 leukemia): 5.25 µM
- GI50 (COLO 205 colon): 1.72 µM
- TGI (COLO 205 colon): 3.69 µM
- GI50 (SW-620 colon): 1.82 µM
- TGI (SW-620 colon): 3.71 µM
- GI50 (HOP-92 NSCLC): 1.1 µM
- TGI (HOP-92 NSCLC): 3.6 µM
- GI50 (HT29 colon): 0.822 µM
- TGI (HT29 colon): 2.32 µM
- GI50 (NCI-H460 lung): 1.91 µM
- TGI (NCI-H460 lung): 4.12 µM
- GI50 (SF-295 CNS): 1.61 µM
- TGI (SF-295 CNS): 3.65 µM
- GI50 (PC-3 prostate): 1.72 µM
- TGI (PC-3 prostate): 3.72 µM
- GI50 (UO-31 renal): 1.68 µM
- TGI (UO-31 renal): 3.43 µM
- GI50 (MALME-3M melanoma): 1.15 µM
- TGI (MALME-3M melanoma): 3.06 µM
- GI50 (RPMI-8226 leukemia): 1.7 µM
- TGI (RPMI-8226 leukemia): 6.3 µM
- GI50 (M14 melanoma): 1.74 µM
- TGI (M14 melanoma): 3.68 µM
- GI50 (MOLT-4 leukemia): 2.37 µM
- TGI (MOLT-4 leukemia): 7.76 µM
- GI50 (IGROV1 ovarian): 3.11 µM
- TGI (IGROV1 ovarian): 9.01 µM
- GI50 (NCI-H226 lung): 10.8 µM
- TGI (NCI-H226 lung): 29.9 µM
- GI50 (CCRF-CEM leukemia): 1.95 µM
- TGI (CCRF-CEM leukemia): 11.6 µM
- GI50 (HOP-62 NSCLC): 1.86 µM
- TGI (HOP-62 NSCLC): 3.88 µM
- GI50 (OVCAR-8 ovarian): 3.6 µM
- TGI (OVCAR-8 ovarian): 12.5 µM
- GI50 (SN12C renal): 2.97 µM
- TGI (SN12C renal): 11.8 µM
- GI50 (OVCAR-5 ovarian): 2.26 µM
- TGI (OVCAR-5 ovarian): 5.62 µM
- GI50 (SF-539 CNS): 1.8 µM
- TGI (SF-539 CNS): 3.73 µM
- GI50 (A498 renal): 1.26 µM
- TGI (A498 renal): 4.03 µM
- GI50 (OVCAR-3 ovarian): 2.11 µM
- TGI (OVCAR-3 ovarian): 6.37 µM
- GI50 (RXF 393 renal): 1.52 µM
- TGI (RXF 393 renal): 4.36 µM
- GI50 (LOX IMVI melanoma): 1.53 µM
- TGI (LOX IMVI melanoma): 3.09 µM
- GI50 (HL-60(TB) leukemia): 1.26 µM
- TGI (HL-60(TB) leukemia): 4.2 µM
- GI50 (SR leukemia): 1.71 µM
- TGI (SR leukemia): 6.95 µM
- GI50 (OVCAR-4 ovarian): 2.84 µM
- TGI (OVCAR-4 ovarian): 14.9 µM
- GI50 (T-47D breast): 1.88 µM
- TGI (T-47D breast): 8.79 µM
- GI50 (HS 578T breast): 1.82 µM
- TGI (HS 578T breast): 5.43 µM
- GI50 (MDA-MB-435): 1.68 µM
- TGI (MDA-MB-435): 3.36 µM
- GI50 (SF-268 CNS): 2.45 µM
- TGI (SF-268 CNS): 8.31 µM
- GI50 (NCI/ADR-RES ovarian): 3.4 µM
- TGI (NCI/ADR-RES ovarian): 14.7 µM
- GI50 (SNB-75 CNS): 1.35 µM
- TGI (SNB-75 CNS): 4.05 µM
- GI50 (NCI-H23 lung): 3.15 µM
- TGI (NCI-H23 lung): 13.2 µM
- GI50 (U251 CNS): 1.69 µM
- TGI (U251 CNS): 3.64 µM
- GI50 (MDA-MB-231 breast): 1.63 µM
- TGI (MDA-MB-231 breast): 3.57 µM
- GI50 (KM12 colon): 1.89 µM
- TGI (KM12 colon): 4.16 µM
- GI50 (HCT-15 colon): 1.29 µM
- TGI (HCT-15 colon): 3.33 µM
- GI50 (SK-OV-3 ovarian): 2.59 µM
- TGI (SK-OV-3 ovarian): 6.9 µM
- GI50 (SK-MEL-28 melanoma): 1.56 µM
- TGI (SK-MEL-28 melanoma): 3.2 µM
- GI50 (MCF7 breast): 1.66 µM
- TGI (MCF7 breast): 3.53 µM
- GI50 (CAKI-1 renal): 1.67 µM
- TGI (CAKI-1 renal): 3.95 µM
- GI50 (HCC-2998 colon): 1.71 µM
- TGI (HCC-2998 colon): 3.31 µM
- GI50 (EKVX NSCLC): 3.17 µM
- TGI (EKVX NSCLC): 13.1 µM
- GI50 (BT-549 breast): 2.34 µM
- TGI (BT-549 breast): 9.86 µM
- GI50 (A549 NSCLC): 2.19 µM
- TGI (A549 NSCLC): 5.26 µM
- GI50 (SNB-19 CNS): 2.08 µM
- TGI (SNB-19 CNS): 4.79 µM
- GI50 (SK-MEL-5 melanoma): 1.47 µM
- TGI (SK-MEL-5 melanoma): 2.88 µM
- GI50 (786-0 renal): 1.62 µM
- TGI (786-0 renal): 3.3 µM
- GI50 (TK-10 renal): 2 µM
- TGI (TK-10 renal): 4.23 µM
- GI50 (NCI-H522 lung): 1.44 µM
- TGI (NCI-H522 lung): 3.1 µM
- GI50 (DU-145 prostate): 3.07 µM
- TGI (DU-145 prostate): 11.5 µM
- GI50 (HCT-116 colon): 1.49 µM
- TGI (HCT-116 colon): 3.17 µM
- GI50 (SK-MEL-2 melanoma): 1.91 µM
- TGI (SK-MEL-2 melanoma): 3.8 µM
- GI50 (UACC-257 melanoma): 1.76 µM
- TGI (UACC-257 melanoma): 3.27 µM
